Results published in PubChem BioAssay (NCI).
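Compound exposure: 48 hours, 5 concentrations, 96-well plates. TGI is the concentration that stops growth completely.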

Assays:
Test in all cases: DTP human tumour cell line panel, 48 h
ACHN renal = tested on: ACHN renal
DU-145 prostate = tested on: DU-145 prostate
MOLT-4 leukemia = tested on: MOLT-4 leukemia
KM12 colon = tested on: KM12 colon
UO-31 renal = tested on: UO-31 renal
SK-MEL-5 melanoma = tested on: SK-MEL-5 melanoma
HOP-92 NSCLC = tested on: HOP-92 NSCLC
OVCAR-4 ovarian = tested on: OVCAR-4 ovarian
HCT-116 colon = tested on: HCT-116 colon
NCI-H23 lung = tested on: NCI-H23 lung
CAKI-1 renal = tested on: CAKI-1 renal
M14 melanoma = tested on: M14 melanoma
SK-OV-3 ovarian = tested on: SK-OV-3 ovarian
EKVX NSCLC = tested on: EKVX NSCLC
BT-549 breast = tested on: BT-549 breast
CCRF-CEM leukemia = tested on: CCRF-CEM leukemia
SF-268 CNS = tested on: SF-268 CNS
MDA-N = tested on: MDA-N

| SMILES | TGI (ACHN renal) [µM] | TGI (DU-145 prostate) [µM] | TGI (MOLT-4 leukemia) [µM] | TGI (KM12 colon) [µM] | TGI (UO-31 renal) [µM] | TGI (SK-MEL-5 melanoma) [µM] | TGI (HOP-92 NSCLC) [µM] | TGI (OVCAR-4 ovarian) [µM] | TGI (HCT-116 colon) [µM] | TGI (NCI-H23 lung) [µM] | TGI (CAKI-1 renal) [µM] | TGI (M14 melanoma) [µM] | TGI (SK-OV-3 ovarian) [µM] | TGI (EKVX NSCLC) [µM] | TGI (BT-549 breast) [µM] | TGI (CCRF-CEM leukemia) [µM] | TGI (SF-268 CNS) [µM] | TGI (MDA-N) [µM] |
| --- | --- | --- | --- | --- | --- | --- | --- | --- | --- | --- | --- | --- | --- | --- | --- | --- | --- | --- |
| COc1cc(C23OCC(Cc4cc5c(cc42)OCO5)C3CO)cc(OC)c1OC (configuration not stated) | > 100 | > 100 | > 100 | > 100 | > 100 | > 100 | > 100 | > 100 | > 100 | > 100 | > 100 | > 100 | > 28.8 | > 100 | > 100 | > 100 | > 100 |  |
| COC(=O)c1c2c(cc3c1CC1(Cc4cc5c(cc4C1)CCC5)C3)CCC2 | > 100 | > 100 | > 100 |  | > 100 | > 100 | > 100 | > 100 | > 100 | > 100 | > 100 | > 100 | > 100 | > 100 |  | > 100 | > 100 | > 100 |
| CN(C)CCCNC(=O)c1cc(NC(=O)c2cc(NC(=O)[C@@H]3C[C@H]3C(=O)Nc3cc(C(=O)Nc4cc(C(=O)NCCCN(C)C)n(C)c4)n(C)c3)cn2C)cn1C | > 100 | > 100 | > 100 | > 100 |  | > 100 | > 100 | > 100 | > 100 | > 100 | > 100 | > 100 |  | > 100 | > 100 | > 100 | > 100 |  |
| O=C(/C=C/c1ccc(O)c(O)c1)NCCc1ccc(-c2ccccc2)cc1 |  | > 100 | > 100 | > 100 | > 100 | > 100 |  | > 100 | > 100 | > 100 | > 100 | > 100 | > 100 | > 100 | > 100 | > 100 | > 100 |  |
| O=C(O)CCC(NC(=O)c1ccc(CNc2nc3ccccc3nc2C(=O)O)cc1)C(=O)O (configuration not stated) | > 100 | > 100 | > 100 | > 100 | > 100 | > 100 |  | > 100 | > 100 | > 100 |  | > 100 | > 100 | > 100 |  | > 100 | > 100 | > 100 |
| Cn1c(=O)oc2cc(Br)ccc21 | > 100 | > 100 | > 100 | > 100 | > 100 | > 100 |  | > 100 | > 100 | > 100 | > 100 | > 100 | > 100 | > 100 |  | > 100 | > 100 | > 100 |
| O=C(c1ccccc1)c1c(CC(O)c2ccccc2)n(C(=O)c2ccccc2)c2ccccc12 (configuration not stated) | > 100 |  | 54.4 | > 100 | 60.6 | > 100 | 98.9 | > 100 | > 100 | 69.5 | > 100 | > 100 |  |  |  | > 100 | > 100 |  |
| O=[N+]([O-])c1sc2ccc(Cl)cc2c1Nc1ccc(Cl)cc1 | > 100 | > 100 | > 100 | > 100 | > 100 | > 100 |  | > 100 |  | > 100 |  | > 100 | > 100 | > 100 | > 100 | > 100 | > 100 |  |
| CC(=O)N=C1N(/C=C2\C(=O)Oc3ccccc3C2=O)C(=O)/C(=C/c2ccccc2Cl)N1C | > 100 | > 100 | > 100 | > 100 |  | > 100 |  | > 100 | > 100 | > 100 | > 100 | > 100 | > 100 | > 100 |  | > 100 | > 100 | > 100 |
| Nc1c(N2CCCCC2)c(=O)nc2[nH]/c(=C\c3ccccc3)c(=O)n12 | > 100 | > 100 | > 100 | > 100 | > 100 | > 100 | > 100 | > 100 | > 100 | > 100 | > 100 | > 100 | > 100 | > 100 |  | > 100 | > 100 | > 100 |
| O=C(O)CC1CC=C[C@H]2c3cc4c(cc3C(=O)NC12)OCO4 (some centres not stated) | > 75 |  | > 75 | > 75 | > 75 |  |  |  | > 75 | > 75 |  | > 75 | > 75 | > 75 |  | > 75 | > 75 |  |
| COc1ccc(C[C@H](N)C(=O)N2C[C@@H](CO)C[C@@H](n3cnc4c(N(C)C)ncnc43)C2)cc1 |  |  | > 100 | > 100 | > 100 | > 100 | > 100 |  | > 100 | > 100 | > 100 | > 100 | > 100 | > 100 |  | > 100 | > 100 |  |
